How the values were obtained:
[1] = tested on: JAK2/2 signaling pathway (GM-CSF/pSTAT5); assay: GM-CSF-stimulated pSTAT5 in human PBMC (flow cytometry); assay type: cell-based; conditions: CD33-positive cells
Description: The purpose of this experiment was to detect the inhibitory effect of the compounds on cytokine-activated JAK-STAT signaling pathways in human peripheral blood mononuclear cells (PBMC).
• a) PBMCs frozen in liquid nitrogen were thawed in a 37° C. water bath, and culture medium was added. The mixture was then centrifuged at 320 g for 3 minutes. • b) Cells were resuspended in culture medium, counted, and the cell concentration was adjusted to 5×10^5 cells/mL with culture medium. Subsequently, the cell suspension was inoculated into […] 96-well round-bottom plates, with 200 μL per well. The plates were incubated at 37° C. with 5% CO2 for 90 minutes. • c) Different concentrations of the test compound (starting at 2 μM, 5-fold serial dilution, a total of 8 concentrations) were added, followed by incubation at 37° C. with 5% CO2 for 30 minutes. • d) IL-6 (final concentration at 20 ng/mL) was added to the first round-bottom plate and incubated at 37° C. with 5% CO2 for 15 minutes. • e) IFNα (final concentration at 1000 U/mL) was added to the second round-bottom plate and incubated at 37° C. with 5% CO2 for 15 minutes. • f) IL-2 (final concentration at 4 ng/mL) was added to the third round-bottom plate and incubated at 37° C. with 5% CO2 for 15 minutes. • g) GM-CSF (final concentration at […]) was added to the fourth round-bottom plate and incubated at 37° C. with 5% CO2 for 15 minutes. • h) Cells were centrifuged at 320 g for 3 minutes, and each well was washed once with 200 μL of staining solution. • i) 50 μL of staining solution containing human CD33 antibody was added to each well of the GM-CSF-stimulated culture plate, and 50 μL of staining solution containing CD4 antibody was added to the remaining three culture plates. The staining was performed at 4° C. for 30 minutes. The cells were washed twice with the staining solution. • j) 100 μL of fixation buffer was added to each well, and the cells were fixed at 4° C. for 15 minutes. The cells were washed once with the staining solution. • k) 100 μL of permeabilization buffer was added to each well, and the cells were permeabilized at 4° C. for 20 minutes. The cells were washed twice with the staining solution. • l) 50 μL of staining solution containing human pSTAT1 antibody was added to each well of the IL-6 and IFN-α-stimulated culture plates, and 50 μL of staining solution containing human pSTAT5 antibody was added to each well of the IL-2 and GM-CSF-stimulated culture plates. The staining was performed at room temperature for 15 minutes. The cells were washed twice with the staining solution. • m) The cells were resuspended in 150 μL of staining solution. • n) The fluorescence intensity of pSTAT1 (stimulated by IL-6 and IFN-α) or pSTAT5 (stimulated by IL-2) in CD4-positive cells was detected using flow cytometer. The fluorescence intensity of pSTAT5 (stimulated by GM-CSF) in CD33-positive cells was also detected.
Data analysis was performed using Flowjo software to determine the IC50 of the compounds.

[2] = tested on: TYK2 signaling pathway (IFN-α/pSTAT5); assay: IFN-α-induced STAT phosphorylation in human whole blood; assay type: cell-based
Description: The purpose of this experiment was to detect the inhibitory effect of the compound on the JAK-STAT signaling pathway activated by cytokines in human whole blood or platelet-rich plasma. Fresh human whole blood/platelets were placed in a 96-well plate. The test compound was added and incubated for 1 hour, followed by stimulation with various cytokines. The corresponding STAT phosphorylation levels in different cell populations were analyzed using flow cytometer by means of surface antibody staining and intracellular phosphorylated antibody staining. The experiments using the cytokines IFN-α, […] as stimulants were conducted in human whole blood, whereas the experiment using the cytokine TPO as a stimulant was conducted in platelet-rich plasma.
• a) Fresh blood from volunteers was collected using EDTA anticoagulant tubes. • b) 90 μL per well of whole blood was rapidly seeded into a 96-well plate and incubated in a cell culture incubator for 15 minutes. […] The plate was centrifuged at 500×g for 8 minutes, and the supernatant was discarded. • g) The cell pellet was washed once with pre-cooled PBS. • h) After discarding the supernatant, anti-human CD3 antibody was added thereto, followed by incubation at room temperature for 40 minutes. • i) The plate was centrifuged at 500×g for 8 minutes, then the supernatant was discarded, and the cells were washed twice with 200 μL of pre-cooled PBS. • j) The cells were resuspended in 200 μL of pre-cooled Perm Buffer III per well and permeabilized on ice for 60 minutes. • k) The plate was centrifuged at 600×g for 8 minutes, then the supernatant was discarded, and the cells were washed twice with pre-cooled PBS. • l) Intracellular staining with anti-pSTAT5 antibody was carried out, followed by incubation at room temperature for 60 minutes. • m) The cells were centrifuged at 600×g for 8 minutes, washed twice with PBS, resuspended in 200 μL of PBS, and detected using the CytoFlex S flow cytometer. • n) Data analysis was conducted using FlowJo and GraphPad Prism 8 software.
Data were analyzed using FlowJo software. […]

Compound | IC50 [1] | IC50 [2]
CNC(=O)c1nnc(NC(=O)C2CC2)cc1Nc1cccc(-c2ncc(S(=N)(=O)C(C)C)cn2)c1OC (single isomer, unassigned) [WX-011A] | 1660 nM | 23.1 nM
CNC(=O)c1nnc(NC(=O)C2CC2)cc1Nc1cccc(-c2ncc(S(=N)(=O)C(C)C)cn2)c1OC (single isomer, unassigned) [WX-011B] | 1350 nM | –
CNC(=O)c1cnc(NC(=O)C2CC2)cc1Nc1cccc(-c2ccc(S(=O)(=O)C(C)C)cn2)c1OC.Cl [Hydrochloride of WX-020] | 1070 nM | –
CNC(=O)c1cnc(NC(=O)C2CC2)cc1Nc1cccc(-c2ncc(S(=O)(=O)C(C)C)cn2)c1OC [WX-019] | 1440 nM | 29.7 nM
CNC(=O)c1cnc(NC(=O)C2CC2)cc1Nc1cccc(-c2ccc(S(=O)(=O)C(C)C)cn2)c1OC [WX-020] | – | 40.3 nM
CNC(=O)c1nnc(NC(=O)C2CC2)cc1Nc1cccc(-c2ccc(P(=O)(C3CC3)C3CC3)cn2)c1OC [WX-021] | 580 nM | –
